Experimental findings from PMC9785006, “The Study of Hypoglycemic Activity of 7-Terpenylcoumarins” (Molecules, 2022) are described below.

The target of assay [1] is T1, DPP IV (Homo sapiens, UniProt P27487).
T1 construct: gene DPP4
The assay can be described thus: fluorometric DPP (IV) inhibitor screening kit (Cayman), Gly-Pro-AMC substrate; at […] the effect was only a tendency ([…] < p < […]). The assay is classed as biochemical.

The target of assay [2] is T1, DPP IV. Briefly: fluorometric DPP (IV) inhibitor screening kit (Cayman), Gly-Pro-AMC substrate. The assay is classed as biochemical.

T1 sequence (P27487 39-766): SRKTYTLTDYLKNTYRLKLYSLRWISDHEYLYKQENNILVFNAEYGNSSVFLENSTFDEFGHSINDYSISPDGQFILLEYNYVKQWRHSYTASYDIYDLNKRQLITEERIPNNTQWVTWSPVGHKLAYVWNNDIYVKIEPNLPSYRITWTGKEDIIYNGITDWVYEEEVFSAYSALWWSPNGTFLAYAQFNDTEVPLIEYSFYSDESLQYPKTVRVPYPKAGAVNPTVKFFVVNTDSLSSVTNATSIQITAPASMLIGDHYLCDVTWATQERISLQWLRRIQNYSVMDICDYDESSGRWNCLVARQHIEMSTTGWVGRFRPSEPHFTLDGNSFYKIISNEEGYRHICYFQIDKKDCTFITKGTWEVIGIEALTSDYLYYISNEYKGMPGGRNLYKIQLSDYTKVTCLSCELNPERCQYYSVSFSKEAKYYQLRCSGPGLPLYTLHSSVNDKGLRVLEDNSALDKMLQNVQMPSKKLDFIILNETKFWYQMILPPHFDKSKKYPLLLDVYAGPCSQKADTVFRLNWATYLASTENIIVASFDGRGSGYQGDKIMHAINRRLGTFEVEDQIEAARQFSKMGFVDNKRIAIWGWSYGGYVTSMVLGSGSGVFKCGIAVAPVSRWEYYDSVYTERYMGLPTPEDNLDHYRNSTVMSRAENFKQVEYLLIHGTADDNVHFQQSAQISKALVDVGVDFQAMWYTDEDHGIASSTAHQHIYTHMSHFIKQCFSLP

Regarding `CC1(C)[C@H]2CC=C(COc3ccc4c5c(c(=O)oc4c3)CCC5)[C@@H]1C2` [7b, 7-(((1R,5S)-6,6-Dimethylbicyclo [3.1.1]hept-2-en-2-yl)methoxy)-2,3-dihydrocyclopenta[c]chromen-4(1H)-one], at DPP IV [1], the IC50 stood at 115 µM.
The molecule `CC(C)=CCC/C(C)=C/COc1ccc2c(-c3ccccc3)cc(=O)oc2c1` [9a, (E)-7-(3,7-Dimethylocta-2,6-dienyloxy)-4-phenyl-2H-chromen-2-one] yielded an IC50 on DPP IV [2] of 128 µM.
